From ChEMBL document CHEMBL3046545, “Simple and efficient synthetic routes to bioactive s-triazinyl dithiocarbamate derivatives” (2008)

Columns and labels:
Assay type in all cases: functional
[1] = system: Aspergillus niger; test: Antifungal activity against Aspergillus niger at […] after 24 hr by agar well diffusion assay
[2] = system: Bacillus subtilis; test: Antibacterial activity against Bacillus subtilis at […] after 24 hr by agar well diffusion assay
[3] = system: Streptococcus pyogenes; test: Antibacterial activity against Streptococcus pyogenes at […] after 24 hr by agar well diffusion assay
[4] = system: Escherichia coli; test: Antibacterial activity against Escherichia coli at […] after 24 hr by agar well diffusion assay

| Compound | inhibition zone (IZ) [1] | inhibition zone (IZ) [2] | inhibition zone (IZ) [3] | inhibition zone (IZ) [4] |
| --- | --- | --- | --- | --- |
| Cc1cccc(Nc2nc(SC(=S)Nc3ccccc3C)nc(SC(=S)Nc3ccccc3C)n2)c1 | 13 mm | 19 mm | 12 mm | 12 mm |
| COC1=CC(=O)C[C@@H](C)[C@]12Oc1c(Cl)c(OC)cc(OC)c1C2=O [GRISEOFULVIN] | 20 mm |  |  |  |
| Cc1cccc(Nc2nc(SC(=S)Nc3ccccc3[N+](=O)[O-])nc(SC(=S)Nc3ccccc3[N+](=O)[O-])n2)c1 | 19 mm | 14 mm | 13 mm | 17 mm |
| Cc1cccc(Nc2nc(Nc3cccc(C)c3)nc(SC(=S)Nc3ccc(Cl)cc3)n2)c1 | 16 mm | 12 mm | 13 mm | 15 mm |
| CCOc1ccc(NC(=S)Sc2nc(Nc3cccc(C)c3)nc(Nc3cccc(C)c3)n2)cc1 | 18 mm | 13 mm | 13 mm | 14 mm |
| COc1ccc(NC(=S)Sc2nc(Nc3cccc(C)c3)nc(Nc3cccc(C)c3)n2)cc1 | 17 mm | 12 mm | 15 mm | 12 mm |
| Cc1cccc(NC(=S)Sc2nc(Nc3cccc(C)c3)nc(SC(=S)Nc3cccc(C)c3)n2)c1 | 14 mm | 13 mm | 12 mm | 13 mm |
| Cc1cccc(NC(=S)Sc2nc(Nc3cccc(C)c3)nc(Nc3cccc(C)c3)n2)c1 | 20 mm | 14 mm | 12 mm | 15 mm |
| Cc1ccc(NC(=S)Sc2nc(Nc3cccc(C)c3)nc(Nc3cccc(C)c3)n2)cc1 | 14 mm | 15 mm | 15 mm | 19 mm |
| Cc1cccc(Nc2nc(Nc3cccc(C)c3)nc(SC(=S)Nc3ccccc3)n2)c1 | 17 mm | 12 mm | 15 mm | 13 mm |
| Cc1cccc(Nc2nc(Nc3cccc(C)c3)nc(SC(=S)Nc3ccccc3[N+](=O)[O-])n2)c1 | 16 mm | 15 mm | 14 mm | 15 mm |
| COc1ccc(NC(=S)Sc2nc(Nc3cccc(C)c3)nc(SC(=S)Nc3ccc(OC)cc3)n2)cc1 | 15 mm | 15 mm | 14 mm | 15 mm |
| O=C(N[C@H](CO)[C@H](O)c1ccc([N+](=O)[O-])cc1)C(Cl)Cl [CHLORAMPHENICOL] |  | 28 mm | 22 mm | 19 mm |
| Cc1cccc(Nc2nc(Nc3cccc(C)c3)nc(SC(=S)NN3CCOCC3)n2)c1 | 15 mm | 12 mm | 13 mm | 12 mm |
| CCOc1ccc(NC(=S)Sc2nc(Nc3cccc(C)c3)nc(SC(=S)Nc3ccc(OCC)cc3)n2)cc1 | 12 mm | 14 mm | 15 mm | 16 mm |
| Cc1cccc(Nc2nc(SC(=S)Nc3ccc([N+](=O)[O-])cc3)nc(SC(=S)Nc3ccc([N+](=O)[O-])cc3)n2)c1 | 16 mm | 16 mm | 17 mm | 15 mm |
| Cc1cccc(Nc2nc(SC(=S)Nc3ccc(Cl)cc3)nc(SC(=S)Nc3ccc(Cl)cc3)n2)c1 | 17 mm | 18 mm | 18 mm | 15 mm |
| CCN(CC)C(=S)Sc1nc(Nc2cccc(C)c2)nc(SC(=S)N(CC)CC)n1 | 13 mm | 12 mm | 12 mm | 12 mm |
| CCn1cc(C(=O)O)c(=O)c2cc(F)c(N3CCNCC3)cc21 [NORFLOXACIN] |  | 19 mm | 26 mm | 25 mm |
| Cc1ccc(NC(=S)Sc2nc(Nc3cccc(C)c3)nc(SC(=S)Nc3ccc(C)cc3)n2)cc1 | 20 mm | 19 mm | 13 mm | 13 mm |
| Cc1cccc(Nc2nc(Nc3cccc(C)c3)nc(SC(=S)Nc3ccc([N+](=O)[O-])cc3)n2)c1 | 17 mm | 13 mm | 15 mm | 13 mm |
| COc1ccccc1NC(=S)Sc1nc(Nc2cccc(C)c2)nc(Nc2cccc(C)c2)n1 | 18 mm | 14 mm | 14 mm | 13 mm |
| COc1ccccc1NC(=S)Sc1nc(Nc2cccc(C)c2)nc(SC(=S)Nc2ccccc2OC)n1 | 14 mm | 15 mm | 11 mm | 15 mm |
| Cc1cccc(Nc2nc(Nc3cccc(C)c3)nc(SC(=S)Nc3ccccc3C)n2)c1 | 23 mm | 12 mm | 11 mm | 12 mm |
| Cc1cccc(Nc2nc(SC(=S)Nc3ccccc3)nc(SC(=S)Nc3ccccc3)n2)c1 | 12 mm | 15 mm | 12 mm | 12 mm |
| Cc1cccc(Nc2nc(SC(=S)NN3CCOCC3)nc(SC(=S)NN3CCOCC3)n2)c1 | 13 mm | 13 mm | 14 mm | 12 mm |
| CC(=O)N(C(C)=O)C(=S)Sc1nc(Nc2cccc(C)c2)nc(Nc2cccc(C)c2)n1 | 14 mm | 12 mm | 11 mm | 11 mm |
| CC1(C)S[C@@H]2[C@H](NC(=O)[C@H](N)c3ccccc3)C(=O)N2[C@H]1C(=O)O [AMPICILLIN] |  | 22 mm | 26 mm | 24 mm |
